Experimental data taken from ChEMBL document CHEMBL4368934, “Chemistry and biology of ophiobolin A and its congeners” (Bioorg Med Chem Lett, 2019).
Values after ≈ are worked out from the molar mass of the structure shown.

What was measured:
[1] = Cytotoxicity against mouse P388/R cells after 72 hrs by MTT assay; assay type: functional, cell-based; settings: P388, 72 h
[2] = test system: Panel NCI-60 (60 carcinoma cell lines); test: Cytotoxicity against human NCI60 cells; assay type: functional
[3] = Acute toxicity in iv dosed mouse; assay type: organism-based; settings: in vivo
[4] = Acute toxicity in sc dosed mouse; assay type: organism-based; settings: in vivo
Plasmodium falciparum = test: Antimalarial activity against Plasmodium falciparum K1 by [3H]-hypoxanthine incorporation assay; assay type: functional, organism-based
[5] = test system: Mycobacterium tuberculosis; test: Antibacterial activity against Mycobacterium tuberculosis H37Ra by microplate alamar blue assay; assay type: functional, organism-based

CC(C)=C/C=C/[C@H](C)C1=CC[C@]2(C)C[C@H]3[C@H](C(=O)C[C@@]3(C)O)/C(C=O)=C\C[C@@H]12
IC50 [1]: 270 to 650 nM

CC(C)=C[C@H]1C[C@H](C)[C@]2(CC[C@]3(C)C[C@H]4[C@H](C(=O)C[C@@]4(C)O)/C(C=O)=C\C[C@H]32)O1 [OPHIOBOLIN A]
GI50 [2]: 72 nM
CC50 ([2]; read-out: LC50 (the source's name)): 629 nM
LD50 [3]: 12 mg/kg
LD50 [4]: 238 mg/kg

C/C(=C\[C@H](O)[C@@H](O)[C@H](C)[C@H]1CC[C@@]2(C)C[C@@H]3[C@H](C)CC(=O)[C@@H]3/C(C=O)=C\C[C@H]12)C(=O)O
IC50 (Plasmodium falciparum): 13 µg/mL (≈ 30.1 µM)
IC50 [5]: 200 µg/mL (≈ 462 µM)
